Here are results for one molecule from patent publication US20230404998A1, “Combination Therapies for Treating Cancer” (ASCENTAGE PHARMA (SUZHOU) CO., LTD., priority 2020, published 2023).

“Also recorded” adds a separate entry of the source.

The test system of one experiment is Ph+ ALL SUP-B15 cells. As to the kind of experiment: Cell viability assay (Cell-Titer Glo) in leukemia cell lines. Type of experiment: cell-based. To be noted: 72 hours. As for the experimental part:
After treatment, cell viability was measured by Promega© Cell-Titer Glo®3D Cell Viability Assay luminescence assay kit according to instructions from the manufacturer (Promega, Madison, WI, USA, Cat #G7571). Luminescence signal was detected using a BioTek Synergy H1 Hybrid Multi-Mode (Microplate) Reader (BioTek, Shanghai). Cellular proliferative (i.e. viability) curves were plotted and anti-proliferation IC50 values were calculated using Graphpad Prism version 6.0 software (GraphPad Software, San Diego, CA USA).

The target in another experiment is BaF3(Bcr-Abl) F359V (Homo sapiens, UniProt P00519, F359V, cells depend on it). To be noted: read-out: Anti-proliferation (IC50). As for the experimental part: (§1) The anti-proliferative effect was determined by a water-soluble tetrazolium (WST)-based assay using Cell Counting Kit-8 (CCK-8, #D3100L4057, Shanghai life ilab bio technology co., LTD, China). Cells were seeded in 96-well plates and treated with different concentrations of test articles. […] Each treatment was tested in triplicates. The plate was then cultured at 37° C. with 5% CO2 for 72 hours. At the end of treatments, 20 μl/well of CCK-8 reagent was directly added to each wells. The plate was then incubated at 37° C. with 5% CO2 for 2-4 h. The OD value was detected at 450 nm on a microplate reader (SpectraMax I3X, Molecular Devices, US). IC50 values were calculated with Graphpad Prism 7.0 software using nonlinear regression (curve fitting) type data analysis. For combination effect assay, the cells viability was normalized using the mean OD value of triplicated wells for the single agent control.

For experiment [1], the target named is BaF3(Bcr-Abl) F317L-F359V (Homo sapiens, UniProt P00519, F317L/F359V, cells depend on it). To be noted: read-out: Anti-proliferation (IC50). The protocol:
as §1

Another experiment addresses BaF3(Bcr-Abl) E255K (Homo sapiens, UniProt P00519, E255K, cells depend on it). As to conditions: read-out: Anti-proliferation (IC50). As for the experimental part:
as §1

For another experiment, the target named is BaF3(Bcr-Abl) 7253H (Homo sapiens, UniProt P00519, Y253H, cells depend on it). To be noted: read-out: Anti-proliferation (IC50). The protocol:
as §1

The target of another experiment is BaF3(Bcr-Abl) E255V (Homo sapiens, UniProt P00519, E255V, cells depend on it). To be noted: read-out: Anti-proliferation (IC50). As for the experimental part: as §1
Experiment [2] addresses BaF3(Bcr-Abl) Y253H-E255V (Homo sapiens, UniProt P00519, Y253H/E255V, cells depend on it). As to conditions: read-out: Anti-proliferation (IC50). The protocol:
as §1

A further experiment concerns the target BaF3(Bcr-Abl) M244V (Homo sapiens, UniProt P00519, M244V, cells depend on it). As to conditions: read-out: Anti-proliferation (IC50). As for the experimental part:
as §1

Experiment [3] deals with BaF3(Bcr-Abl) G250E-V299L (Homo sapiens, UniProt P00519, G250E/V299L, cells depend on it). As to conditions: read-out: Anti-proliferation (IC50). As for the experimental part: as §1
For experiment [4], the target named is BaF3(Bcr-Abl) T315I-F317L (Homo sapiens, UniProt P00519, T315I/F317L, cells depend on it). As to conditions: read-out: Anti-proliferation (IC50). As for the experimental part:
as §1

Experiment [5] has as its target BaF3(Bcr-Abl) T315I-F359V (Homo sapiens, UniProt P00519, T315I/F359V, cells depend on it). As to conditions: read-out: Anti-proliferation (IC50). As for the experimental part: as §1
For a further experiment, the target named is BaF3(Bcr-Abl) E453K (Homo sapiens, UniProt P00519, E453K, cells depend on it). As to conditions: read-out: Anti-proliferation (IC50). The protocol: as §1
The next experiment has as its target BaF3(Bcr-Abl) E459L (Homo sapiens, UniProt P00519, cells depend on it, form not given). As to conditions: read-out: Anti-proliferation (IC50). The protocol:
as §1

The target of a further experiment is BaF3(Bcr-Abl) Wild-type (Homo sapiens, UniProt P00519). As to conditions: read-out: Anti-proliferation (IC50). The protocol:
as §1

The next experiment concerns the target BaF3(Bcr-Abl) V299L-F39V (Homo sapiens, UniProt P00519, V299L/F359V, cells depend on it). As to conditions: read-out: Anti-proliferation (IC50). The protocol:
as §1

The next experiment addresses BaF3(Bcr-Abl) T35I-F311I (Homo sapiens, UniProt P00519, F311I/T315I, cells depend on it). To be noted: read-out: Anti-proliferation (IC50). The protocol:
as §1

In experiment [6] the target is BaF3(Bcr-Abl) T315I-E255V (Homo sapiens, UniProt P00519, E255V/T315I, cells depend on it). As to conditions: read-out: Anti-proliferation (IC50). The protocol:
as §1

In experiment [7] the target is BaF3(Bcr-Abl) F317L-M351T (Homo sapiens, UniProt P00519, F317L/M351T, cells depend on it). To be noted: read-out: Anti-proliferation (IC50). The protocol:
as §1

The next experiment concerns the target BaF3(Bcr-Abl) T315I-255K (Homo sapiens, UniProt P00519, E255K/T315I, cells depend on it). To be noted: read-out: Anti-proliferation (IC50). As for the experimental part: as §1
The next experiment concerns the target BaF3(Bcr-Abl) V299L (Homo sapiens, UniProt P00519, V299L, cells depend on it). To be noted: read-out: Anti-proliferation (IC50). As for the experimental part: as §1
The next experiment concerns the target BaF3(Bcr-Abl) F311I (Homo sapiens, UniProt P00519, F311I, cells depend on it). As to conditions: read-out: Anti-proliferation (IC50). The protocol:
as §1

In the next experiment the test system is FGFR. As to the kind of experiment: Phosphorylation of FGFR and downstream proteins in cancer cells. Type of experiment: cell-based.

As to `Cc1ccc(C(=O)Nc2ccc(CN3CCN(C)CC3)c(C(F)(F)F)c2)cc1C#Cc1cnc2[nH]ncc2c1` [HQP1351, 3-(2-(1H-pyrazolo[3,4-b]pyridin-5-yl)ethynyl)-4-methyl-N-(4-((4-methylpiperazin-1-yl)methyl)-3-(trifluoromethyl)phenyl)-benzamide], the “Proliferation of Ph+ leukemia cells including SUP-B15” value in the experiment on Ph+ ALL SUP-B15 cells is reported as “selectively inhibited the proliferation of Ph+ cells; also recorded: potently inhibits the proliferation”. Further, the GI50 on BaF3(Bcr-Abl) F359V stood at 50 ± 16 nM; in [1], 25 ± 13 nM; on BaF3(Bcr-Abl) E255K, 22 ± 13 nM; at BaF3(Bcr-Abl) 7253H it was 7 ± 1 nM; at BaF3(Bcr-Abl) E255V it was 27 ± 11 nM; in [2], 122 nM. The GI50 at BaF3(Bcr-Abl) M244V worked out at 41 ± 8 nM; in [3], 14 ± 2 nM; in experiment [4], 117 ± 23 nM; in experiment [5], 20 ± 10 nM; on BaF3(Bcr-Abl) E453K, 3 nM; at BaF3(Bcr-Abl) E459L, 106 nM. In addition, the GI50 at BaF3(Bcr-Abl) Wild-type worked out at 6 nM; at BaF3(Bcr-Abl) V299L-F39V it was 32 ± 4 nM; on BaF3(Bcr-Abl) T35I-F311I, 78 ± 46 nM; in experiment [6], 26 ± 11 nM; in [7], 32 ± 25 nM; at BaF3(Bcr-Abl) T315I-255K it was 40 ± 5 nM. For the same molecule, the GI50 on BaF3(Bcr-Abl) V299L was 8 ± 4 nM; on BaF3(Bcr-Abl) F311I it was 23 ± 13 nM. For the same molecule, the “Phosphorylation of FGFR and downstream proteins” value with FGFR was “inhibiting phosphorylation of FGFR and downstream proteins”.
